Paper PMC10143306, “Seven New Lobane Diterpenoids from the Soft Coral Lobophytum catalai” (Marine Drugs, 2023)
Read-outs that look alike come from different tables or passages of the source.

Columns and labels:
[1] = tested on: CuSO4-induced transgenic fluorescent zebrafish (Tg: zlyz-EGFP); assay: Anti-inflammatory assay in CuSO4-induced transgenic fluorescent zebrafish (macrophage count around neuromasts); type: in vivo; conditions: for Number of macrophages around nerve mound (mean ± SEM): Table S15
Experimental: On account of the fact that research on the anti-inflammatory activity of lobane diterpenoids in zebrafish models has not been reported up to now, we attempted to identify lobane diterpenoids with anti-inflammatory activity in zebrafish models. The anti-inflammatory effect of compounds 1–7 was assessed in CuSO4-induced transgenic fluorescent zebrafish. CuSO4 can produce an intense acute inflammatory response in the neuromasts and mechanosensorial cells in the lateral line of zebrafish, stimulating the infiltration of macrophages. Thus, the number of macrophages surrounding the neuromasts in zebrafish can be observed and counted under a fluorescence microscope. Therefore, the anti-inflammatory activity of these lobane diterpenoids can be evaluated.
Figure 5 Anti-inflammatory assays of compounds 1–7. (a) Images of inflammatory sites in CuSO4-induced transgenic fluorescent zebrafish (Tg: zlyz-EGFP) expressing enhanced green fluorescent protein (EGFP) treated with compounds 1–7, using indomethacin as a positive control.
Healthy macrophage fluorescent transgenic zebrafish (Tg: zlyz-EGFP) were provided by the Biology Institute of Shandong Academy of Science (Jinan, China). The zebrafish maintenance and anti-inflammation assay were carried out as previously described. Each zebrafish larva was photographed using a fluorescence microscope (AXIO, Zom.V16), and the number of macrophages around the nerve mound was calculated using Image-Pro Plus 6.0 software (Rockville, MD, USA). One-way analysis of variance was conducted using GraphPad Prism 7.00 software (San Diego, CA, USA). Lobocatalens A–G (1–7) were tested for anti-inflammatory activities in the zebrafish models. Three dpf (days post-fertilization), healthy macrophage fluorescent transgenic zebrafish were used as animal models to evaluate the anti-inflammatory effects of compounds 1–7.

[2] = Cytotoxicity assay, SRB method, L-02; type: cell-based, human; conditions: human, L-02 normal hepatocyte cells; L-02 cell line, SRB method; read-out: Cytotoxic activity (IC50)
Experimental: (§1) Moreover, the cytotoxic activity of these isolated compounds (1–7) was evaluated against the human leukemia K562, normal human hepatocyte L-02, human pancreatic cancer ASPC-1, and human breast cancer MDA-MB-231 cell lines.
(§2) The MTT method was used to evaluate cytotoxicity against the K562 (human leukemia) cell line, and the SRB method was used to evaluate cytotoxicity against the L-02 (normal human hepatocytes), ASPC-1 (human pancreatic cancer), and MDA-MB-231 (human breast cancer) cell lines. As a positive control, Adriamycin (doxorubicin) was used.

[3] = tested on: L-02 (normal human hepatocytes) cell line; assay: Cytotoxicity assay, SRB method, L-02; type: cell-based; conditions: Homo sapiens, Hepatocyte, Table S16, read-out: Inhibition rate (%); for inhibition at 30 µM: L-02, 30 μM
Experimental: as §1, §2

[4] = Cytotoxicity assay, MTT method, K562; type: cell-based, human; conditions: human, K562 leukemia cells; K562 cell line, MTT method; read-out: Cytotoxic activity (IC50)
Experimental: as §1, §2

[5] = tested on: K562 (human leukemia) cell line; assay: Cytotoxicity assay, MTT method, K562; type: cell-based; conditions: Homo sapiens, read-out: Inhibition rate (%); for inhibition at 30 µM: K562, K562, 30 μM; for inhibition at 1 µM: K562, K562, 1 μM, positive control
Experimental: as §1, §2

[6] = Cytotoxicity assay, SRB method, ASPC-1; type: cell-based, human; conditions: human, ASPC-1 pancreatic cancer cells; ASPC-1 cell line, SRB method; read-out: Cytotoxic activity (IC50)
Experimental: as §1, §2

[7] = tested on: ASPC-1 (human pancreatic cancer) cell line; assay: Cytotoxicity assay, SRB method, ASPC-1; type: cell-based; conditions: Homo sapiens, ASPC1, Table S16, read-out: Inhibition rate (%); for inhibition at 30 µM: ASPC-1, 30 μM
Experimental: as §1, §2

[8] = tested on: MDA-MB-231 (human breast cancer) cell line; assay: Cytotoxicity assay, SRB method, MDA-MB-231; type: cell-based; conditions: Homo sapiens, Table S16, read-out: Inhibition rate (%); for inhibition at 30 µM: MDA-MB-231, 30 μM
Experimental: as §1, §2

[9] = Cytotoxicity assay, SRB method, MDA-MB-231; type: cell-based, human; conditions: human, MDA-MB-231 breast cancer cells; MDA-MB-231 cell line, SRB method; read-out: Cytotoxic activity (IC50)
Experimental: as §1, §2

[10] = Danio rerio, Macrophage, 20 μM, Table S15, read-out: Inhibition rate

Compound | Number of macrophages around nerve mound (mean ± SEM) ([1]; 20 μM) | inhibition at 20 µM [1, 10] [%] | IC50 [2] [µM] | inhibition at 30 µM [3] [%] | IC50 [4] [µM] | inhibition at 30 µM ([5]; Table S16) [%] | IC50 [6] [µM] | inhibition at 30 µM [7] [%] | inhibition at 30 µM [8] [%] | IC50 [9] [µM] | other results
C=CC1(C)CCC(C(C)=CC=CC(C)=O)CC1C(=C)C (stereo not drawn) [Compound 6, Lobocatalen F] | 26.2 ± 2.356 | 17.8 | > 30 | 25.4 |  |  |  |  |  |  | 
C=CC1(C)CCC(C(=C)CCC(=O)C(C)(C)O)CC1C(=C)C (stereo not drawn) [Compound 5, Lobocatalen E] | 21.89 ± 3.199 | 31.4 |  |  | > 30 | 34.3 |  |  |  |  | 
C=CC1(C)CCC(C(C)=CC(=O)CC(C)(C)O)CC1C(=C)C (stereo not drawn) [Compound 4, Lobocatalen D] | 22.22 ± 2.737 | 30.3 | > 30 | 21.6 | > 30 | 36.7 | > 30 | 18.9 | 18.4 | > 30 | 
COc1cccc2c1C(=O)c1c(O)c3c(c(O)c1C2=O)C[C@@](O)(C(=O)CO)C[C@@H]3O[C@H]1C[C@H](N)[C@H](O)[C@H](C)O1 [doxorubicin, reference compound] |  |  | < 1 |  | < 1 |  | < 1 |  |  | < 1 | inhibition at 1 µM ([7]; ASPC-1, 1 μM, positive control): 52%; inhibition at 1 µM ([8]; MDA-MB-231, 1 μM, positive control): 55.9%; inhibition at 1 µM ([3]; L-02, 1 μM, positive control): 83%; inhibition at 1 µM ([5]; Table S16): 100%; inhibition at 1 µM ([5]; Table S17): 100%
C=CC1(C)CCC(C2=COC(C(C)(C)O)CC2=O)CC1C(=C)C (stereo not drawn) [Compound 3, Lobocatalen C] | 25.30 ± 1.904 | 20.7 | > 30 | 22.1 | > 30 | 43.5 | > 30 | 18.6 | 19.9 | > 30 | 
C=CC1(C)CCC(C(=O)C=CC(OC(C)=O)C(C)(C)O)CC1C(=C)C (stereo not drawn) [Compound 7, Lobocatalen G] | 18.6 ± 1.805 | 41.7 | > 30 | 29.8 | 28 | 63.5 | > 30 | 17.5 | 10.4 | > 30 | Anti-inflammatory activity (in words) ([1]; 20 μM, migration and number of macrophages surrounding the neuromasts): moderate anti-inflammatory activity; inhibition at 0.9375 µM ([5]; K562, K562, 0.9375 μM, Table S17): 5.87%; inhibition at 1.875 µM ([5]; K562, K562, 1.875 μM, Table S17): 9.55%; inhibition at 3.75 µM ([5]; K562, K562, 3.75 μM, Table S17): 11.6%; inhibition at 7.5 µM ([5]; K562, K562, 7.5 μM, Table S17): 15.5%; inhibition at 15 µM ([5]; K562, K562, 15 μM, Table S17): 21%; inhibition at 30 µM ([5]; Table S17): 73.3%
C=CC1(C)CCC(C2=CCC3OC2OC3(C)C)CC1C(=C)C (stereo not drawn) [Compound 1, Lobocatalen A] | 25.67 ± 3.14 | 19.5 | > 30 | 24.9 | > 30 | 39.9 |  |  | 21.9 | > 30 | 
C=CC1(C)CCC(C2=CCC(C(C)(C)O)OC2O)CC1C(=C)C (stereo not drawn) [Compound 2, Lobocatalen B] | 30.00 ± 3.047 | 5.93 | > 30 | 30.2 | > 30 | 48.7 |  |  | 24.2 | > 30 | 
COc1ccc2c(c1)c(CC(=O)O)c(C)n2C(=O)c1ccc(Cl)cc1 [Indomethacin, reference compound] |  |  |  |  |  |  |  |  |  |  | Number of macrophages around nerve mound (mean ± SEM) ([1]; 40 μM, positive control): 11.88 ± 1.575; inhibition at 40 µM ([1]; Danio rerio, Macrophage, 40 μM, positive control, Table S15, read-out: Inhibition rate): 62.8%
